From patent US9340590B2 (priority 2011, dated 2016)
Positions of bridges follow the written chain, without caps; N, C: chain ends. Residues, ends and D or L forms follow the SMILES beside them.

Experiments:
Experiment in all cases: cell-based
[1] = biological target: hNav1.5 (Homo sapiens, UniProt Q14524); details: IonWorks Quattro; clamped to −110 mV, depolarized to −10 mV, 5 min after compound; n=2; read-out: IWQ Use Nav1.5
[2] = biological target: hNav1.7 (Homo sapiens, UniProt Q15858); type: cell-based; details: IonWorks Quattro; clamped to −110 mV, depolarized to −10 mV, 5 min after compound; n=2; read-out: IWQ Use Nav1.7
[3] = biological target: hNav1.3 (Homo sapiens, UniProt Q9NY46); details: IonWorks Quattro; clamped to −110 mV, depolarized to −10 mV, 5 min after compound; n=2; read-out: IWQ Use Nav1.3
Chain of hNav1.3 (Q9NY46 whole entry, looked up): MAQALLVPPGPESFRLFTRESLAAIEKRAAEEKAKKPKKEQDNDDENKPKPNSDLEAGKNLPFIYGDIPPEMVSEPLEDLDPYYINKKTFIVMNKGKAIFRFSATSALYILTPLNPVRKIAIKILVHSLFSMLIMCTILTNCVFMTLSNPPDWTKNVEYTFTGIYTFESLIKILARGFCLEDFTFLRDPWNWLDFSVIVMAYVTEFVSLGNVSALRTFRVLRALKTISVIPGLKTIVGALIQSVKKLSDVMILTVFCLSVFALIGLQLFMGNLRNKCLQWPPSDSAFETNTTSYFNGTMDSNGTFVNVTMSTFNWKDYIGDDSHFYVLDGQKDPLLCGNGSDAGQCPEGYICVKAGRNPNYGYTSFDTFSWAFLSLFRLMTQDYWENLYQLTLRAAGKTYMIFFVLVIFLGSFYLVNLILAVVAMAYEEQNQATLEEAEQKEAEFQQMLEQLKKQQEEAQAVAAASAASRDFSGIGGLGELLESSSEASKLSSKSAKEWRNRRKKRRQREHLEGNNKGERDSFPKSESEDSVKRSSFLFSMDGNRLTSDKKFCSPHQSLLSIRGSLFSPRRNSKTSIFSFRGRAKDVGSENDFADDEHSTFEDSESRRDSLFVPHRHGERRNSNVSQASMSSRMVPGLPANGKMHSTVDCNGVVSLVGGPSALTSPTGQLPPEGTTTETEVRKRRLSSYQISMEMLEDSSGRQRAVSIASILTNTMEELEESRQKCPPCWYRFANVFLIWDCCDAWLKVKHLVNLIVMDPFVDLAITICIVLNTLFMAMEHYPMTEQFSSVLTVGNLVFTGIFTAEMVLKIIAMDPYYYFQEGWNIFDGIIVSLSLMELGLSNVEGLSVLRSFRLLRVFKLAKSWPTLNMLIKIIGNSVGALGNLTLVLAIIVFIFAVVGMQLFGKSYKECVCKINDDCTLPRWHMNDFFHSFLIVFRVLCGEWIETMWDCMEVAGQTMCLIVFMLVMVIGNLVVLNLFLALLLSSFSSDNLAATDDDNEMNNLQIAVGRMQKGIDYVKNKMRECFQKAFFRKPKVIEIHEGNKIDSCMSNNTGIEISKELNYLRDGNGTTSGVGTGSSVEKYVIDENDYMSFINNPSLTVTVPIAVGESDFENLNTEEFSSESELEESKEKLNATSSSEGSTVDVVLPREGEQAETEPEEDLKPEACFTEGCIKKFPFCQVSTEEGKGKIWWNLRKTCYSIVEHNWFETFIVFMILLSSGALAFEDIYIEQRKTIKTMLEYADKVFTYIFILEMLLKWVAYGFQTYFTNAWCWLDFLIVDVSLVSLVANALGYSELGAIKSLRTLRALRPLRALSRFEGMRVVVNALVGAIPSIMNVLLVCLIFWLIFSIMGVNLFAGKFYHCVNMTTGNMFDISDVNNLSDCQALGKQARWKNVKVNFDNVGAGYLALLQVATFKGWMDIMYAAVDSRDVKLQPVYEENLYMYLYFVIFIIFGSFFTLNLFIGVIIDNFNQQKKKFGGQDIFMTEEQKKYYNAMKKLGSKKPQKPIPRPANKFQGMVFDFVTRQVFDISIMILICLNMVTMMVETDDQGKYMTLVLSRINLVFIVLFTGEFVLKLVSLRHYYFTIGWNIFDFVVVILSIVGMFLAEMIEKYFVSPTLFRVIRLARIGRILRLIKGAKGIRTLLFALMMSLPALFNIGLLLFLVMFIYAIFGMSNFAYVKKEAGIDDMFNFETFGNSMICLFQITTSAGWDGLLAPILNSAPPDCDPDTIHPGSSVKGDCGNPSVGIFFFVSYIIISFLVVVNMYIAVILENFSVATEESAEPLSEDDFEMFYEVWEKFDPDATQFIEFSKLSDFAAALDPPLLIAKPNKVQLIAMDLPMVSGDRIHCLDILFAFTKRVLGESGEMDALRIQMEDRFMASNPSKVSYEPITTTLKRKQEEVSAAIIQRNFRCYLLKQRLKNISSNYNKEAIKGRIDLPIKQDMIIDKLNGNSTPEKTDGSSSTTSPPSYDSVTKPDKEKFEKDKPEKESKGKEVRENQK

Chain of hNav1.5 (Q14524 whole entry, looked up): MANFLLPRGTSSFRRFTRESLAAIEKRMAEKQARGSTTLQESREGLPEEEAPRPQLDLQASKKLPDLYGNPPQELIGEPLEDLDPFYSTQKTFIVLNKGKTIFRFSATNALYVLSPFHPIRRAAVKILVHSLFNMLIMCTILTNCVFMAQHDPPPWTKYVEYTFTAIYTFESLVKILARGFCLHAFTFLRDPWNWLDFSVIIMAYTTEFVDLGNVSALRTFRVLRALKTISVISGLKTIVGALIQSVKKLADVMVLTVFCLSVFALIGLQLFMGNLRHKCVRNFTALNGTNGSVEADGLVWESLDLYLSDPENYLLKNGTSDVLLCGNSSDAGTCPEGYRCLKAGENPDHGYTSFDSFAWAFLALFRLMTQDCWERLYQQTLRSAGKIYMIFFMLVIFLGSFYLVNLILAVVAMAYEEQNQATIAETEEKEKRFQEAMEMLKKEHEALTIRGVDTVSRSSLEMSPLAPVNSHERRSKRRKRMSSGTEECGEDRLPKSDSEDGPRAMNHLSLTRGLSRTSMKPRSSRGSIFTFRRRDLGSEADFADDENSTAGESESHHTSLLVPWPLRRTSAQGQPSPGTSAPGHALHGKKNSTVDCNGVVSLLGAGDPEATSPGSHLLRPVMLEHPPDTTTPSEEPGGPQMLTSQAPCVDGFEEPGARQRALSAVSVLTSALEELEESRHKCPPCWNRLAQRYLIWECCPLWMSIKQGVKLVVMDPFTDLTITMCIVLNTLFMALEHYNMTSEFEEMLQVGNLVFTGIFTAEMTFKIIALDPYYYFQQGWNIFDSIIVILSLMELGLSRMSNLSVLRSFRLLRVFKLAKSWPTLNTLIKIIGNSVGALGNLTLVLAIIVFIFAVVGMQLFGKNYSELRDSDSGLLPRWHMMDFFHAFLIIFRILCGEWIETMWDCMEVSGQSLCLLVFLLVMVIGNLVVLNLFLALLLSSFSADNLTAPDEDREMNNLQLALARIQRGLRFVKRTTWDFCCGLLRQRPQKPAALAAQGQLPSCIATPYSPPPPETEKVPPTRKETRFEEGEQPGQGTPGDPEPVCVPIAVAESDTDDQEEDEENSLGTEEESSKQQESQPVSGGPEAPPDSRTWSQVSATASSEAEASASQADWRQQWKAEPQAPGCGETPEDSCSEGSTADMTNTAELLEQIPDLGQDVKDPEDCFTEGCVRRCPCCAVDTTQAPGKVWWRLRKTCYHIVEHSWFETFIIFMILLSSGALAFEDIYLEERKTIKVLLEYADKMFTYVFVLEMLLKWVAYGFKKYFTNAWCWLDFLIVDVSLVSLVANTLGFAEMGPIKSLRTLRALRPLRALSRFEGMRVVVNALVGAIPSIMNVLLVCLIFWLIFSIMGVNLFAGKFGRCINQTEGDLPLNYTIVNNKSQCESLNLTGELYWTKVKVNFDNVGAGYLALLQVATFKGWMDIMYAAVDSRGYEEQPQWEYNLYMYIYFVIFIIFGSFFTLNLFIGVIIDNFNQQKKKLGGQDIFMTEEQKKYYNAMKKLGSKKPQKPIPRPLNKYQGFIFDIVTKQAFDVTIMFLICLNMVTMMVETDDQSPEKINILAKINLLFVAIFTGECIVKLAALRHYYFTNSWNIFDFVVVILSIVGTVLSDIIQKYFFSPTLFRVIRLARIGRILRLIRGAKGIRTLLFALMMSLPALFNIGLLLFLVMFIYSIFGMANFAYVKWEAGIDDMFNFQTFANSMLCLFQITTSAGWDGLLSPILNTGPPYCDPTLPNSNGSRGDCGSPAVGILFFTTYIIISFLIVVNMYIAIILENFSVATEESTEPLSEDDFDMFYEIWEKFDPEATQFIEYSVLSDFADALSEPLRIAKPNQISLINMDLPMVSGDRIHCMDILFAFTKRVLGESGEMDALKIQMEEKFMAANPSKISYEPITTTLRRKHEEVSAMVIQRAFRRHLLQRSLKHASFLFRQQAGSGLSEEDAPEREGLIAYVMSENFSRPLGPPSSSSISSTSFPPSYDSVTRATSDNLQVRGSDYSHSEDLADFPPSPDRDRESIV

Row | SMILES | IC50 [1] [nM] | IC50 [2] [nM] | IC50 [3] [nM]
1 | CC[C@H](C)[C@@H]1NC(=O)[C@H](Cc2ccccc2)NC(=O)CNC(=O)[C@H](CC(C)C)NC(=O)[C@@H](NC(=O)[C@@H](N)CC(=O)O)CSSC[C@@H]2NC(=O)[C@@H]3CSSC[C@@H](C(=O)N[C@@H](CCCCN)C(=O)N[C@@H](Cc4ccc(O)cc4)C(=O)N[C@H](C(=O)N[C@@H](Cc4ccccc4)C(N)=O)C(C)C)NC(=O)[C@H](Cc4c[nH]c5ccccc45)NC(=O)[C@H](CCCCN)NC(=O)[C@H](Cc4c[nH]cn4)NC(=O)[C@H]([C@@H](C)O)NC(=O)[C@H](CCCNC(=N)N)NC(=O)[C@H](CO)NC(=O)[C@H](CSSC[C@H](NC(=O)[C@H](CCCCN)NC(=O)[C@H](CCCNC(=N)N)NC1=O)C(=O)N[C@@H]([C@@H](C)CC)C(=O)N1CCC[C@H]1C(=O)N[C@@H](CC(=O)O)C(=O)N[C@@H](CC(N)=O)C(=O)N[C@@H](CC(=O)O)C(=O)N[C@@H](CCCCN)C(=O)N3)NC(=O)[C@H](C(C)C)NC(=O)[C@H](CC(C)C)NC(=O)[C@H](CC(N)=O)NC(=O)[C@@H]1CCCN1C(=O)[C@H](CCCNC(=N)N)NC2=O [SEQ ID NO: 282] (H-DCLGFIRKCIPDNDKCCRPNLVCSRTHKWCKYVF-NH2; disulfide 2-17, 9-23, 16-30) | 8630 | 70 | 60
2 | CC[C@H](C)[C@@H]1NC(=O)[C@@H]2CSSC[C@@H]3NC(=O)[C@H](C(C)C)NC(=O)[C@H](CC(C)C)NC(=O)[C@H](CC(N)=O)NC(=O)[C@@H]4CCCN4C(=O)[C@H](CCCNC(=N)N)NC(=O)[C@H](CSSC[C@H](NC(=O)[C@@H](N)CC(=O)O)C(=O)N[C@@H](CC(C)C)C(=O)NCC(=O)N[C@@H](Cc4ccccc4)C(=O)N[C@@H](CO)C(=O)N[C@@H](CCCNC(=N)N)C(=O)N[C@@H](CCCCN)C(=O)N2)NC(=O)[C@H](CSSC[C@@H](C(=O)N[C@@H](CCCCN)C(=O)N[C@@H](Cc2ccc(O)cc2)C(=O)N[C@H](C(=O)N[C@@H](Cc2ccccc2)C(N)=O)C(C)C)NC(=O)[C@H](Cc2c[nH]c4ccccc24)NC(=O)[C@H](CCCCN)NC(=O)[C@H](Cc2c[nH]cn2)NC(=O)[C@H]([C@@H](C)O)NC(=O)[C@H](CCCNC(=N)N)NC(=O)[C@H](CO)NC3=O)NC(=O)[C@H](CCCCN)NC(=O)[C@H](CC(=O)O)NC(=O)[C@H](CC(N)=O)NC(=O)[C@H](CC(=O)O)NC(=O)[C@@H]2CCCN2C1=O [SEQ ID NO: 284] (H-DCLGFSRKCIPDNDKCCRPNLVCSRTHKWCKYVF-NH2; disulfide 2-17, 9-23, 16-30) | 16900 | 1020 | 710
3 | CC[C@H](C)[C@@H]1NC(=O)[C@@H]2CSSC[C@@H]3NC(=O)[C@H](C(C)C)NC(=O)[C@H](CC(C)C)NC(=O)[C@H](CC(N)=O)NC(=O)[C@@H]4CCCN4C(=O)[C@H](CCCNC(=N)N)NC(=O)[C@H](CSSC[C@H](NC(=O)[C@@H](N)CC(=O)O)C(=O)N[C@@H](CC(C)C)C(=O)NCC(=O)N[C@@H](Cc4ccccc4)C(=O)N[C@@H]([C@@H](C)O)C(=O)N[C@@H](CCCNC(=N)N)C(=O)N[C@@H](CCCCN)C(=O)N2)NC(=O)[C@H](CSSC[C@@H](C(=O)N[C@@H](CCCCN)C(=O)N[C@@H](Cc2ccc(O)cc2)C(=O)N[C@H](C(=O)N[C@@H](Cc2ccccc2)C(N)=O)C(C)C)NC(=O)[C@H](Cc2c[nH]c4ccccc24)NC(=O)[C@H](CCCCN)NC(=O)[C@H](Cc2c[nH]cn2)NC(=O)[C@H]([C@@H](C)O)NC(=O)[C@H](CCCNC(=N)N)NC(=O)[C@H](CO)NC3=O)NC(=O)[C@H](CCCCN)NC(=O)[C@H](CC(=O)O)NC(=O)[C@H](CC(N)=O)NC(=O)[C@H](CC(=O)O)NC(=O)[C@@H]2CCCN2C1=O [SEQ ID NO: 285] (H-DCLGFTRKCIPDNDKCCRPNLVCSRTHKWCKYVF-NH2; disulfide 2-17, 9-23, 16-30) | 18700 | 590 | 280
4 | CC[C@H](C)[C@@H]1NC(=O)[C@@H]2CSSC[C@@H]3NC(=O)[C@H](C(C)C)NC(=O)[C@H](CC(C)C)NC(=O)[C@H](CC(N)=O)NC(=O)[C@@H]4CCCN4C(=O)[C@H](CCCNC(=N)N)NC(=O)[C@H](CSSC[C@H](NC(=O)[C@@H](N)CC(=O)O)C(=O)N[C@@H](CC(C)C)C(=O)NCC(=O)N[C@@H](Cc4ccccc4)C(=O)N[C@@H](C(C)C)C(=O)N[C@@H](CCCNC(=N)N)C(=O)N[C@@H](CCCCN)C(=O)N2)NC(=O)[C@H](CSSC[C@@H](C(=O)N[C@@H](CCCCN)C(=O)N[C@@H](Cc2ccc(O)cc2)C(=O)N[C@H](C(=O)N[C@@H](Cc2ccccc2)C(N)=O)C(C)C)NC(=O)[C@H](Cc2c[nH]c4ccccc24)NC(=O)[C@H](CCCCN)NC(=O)[C@H](Cc2c[nH]cn2)NC(=O)[C@H]([C@@H](C)O)NC(=O)[C@H](CCCNC(=N)N)NC(=O)[C@H](CO)NC3=O)NC(=O)[C@H](CCCCN)NC(=O)[C@H](CC(=O)O)NC(=O)[C@H](CC(N)=O)NC(=O)[C@H](CC(=O)O)NC(=O)[C@@H]2CCCN2C1=O [SEQ ID NO: 287] (H-DCLGFVRKCIPDNDKCCRPNLVCSRTHKWCKYVF-NH2; disulfide 2-17, 9-23, 16-30) | 9230 | 90 | 80
5 | CC[C@H](C)[C@@H]1NC(=O)[C@@H]2CSSC[C@@H]3NC(=O)[C@H](C(C)C)NC(=O)[C@H](CC(C)C)NC(=O)[C@H](CC(N)=O)NC(=O)[C@@H]4CCCN4C(=O)[C@H](CCCNC(=N)N)NC(=O)[C@H](CSSC[C@H](NC(=O)[C@@H](N)CC(=O)O)C(=O)N[C@@H](CC(C)C)C(=O)NCC(=O)N[C@@H](Cc4ccccc4)C(=O)N[C@@H](c4ccccc4)C(=O)N[C@@H](CCCNC(=N)N)C(=O)N[C@@H](CCCCN)C(=O)N2)NC(=O)[C@H](CSSC[C@@H](C(=O)N[C@@H](CCCCN)C(=O)N[C@@H](Cc2ccc(O)cc2)C(=O)N[C@H](C(=O)N[C@@H](Cc2ccccc2)C(N)=O)C(C)C)NC(=O)[C@H](Cc2c[nH]c4ccccc24)NC(=O)[C@H](CCCCN)NC(=O)[C@H](Cc2c[nH]cn2)NC(=O)[C@H]([C@@H](C)O)NC(=O)[C@H](CCCNC(=N)N)NC(=O)[C@H](CO)NC3=O)NC(=O)[C@H](CCCCN)NC(=O)[C@H](CC(=O)O)NC(=O)[C@H](CC(N)=O)NC(=O)[C@H](CC(=O)O)NC(=O)[C@@H]2CCCN2C1=O [SEQ ID NO: 288] | > 5000 | 150 | 90
6 | CC[C@H](C)[C@@H]1NC(=O)[C@@H]2CSSC[C@@H]3NC(=O)[C@H](C(C)C)NC(=O)[C@H](CC(C)C)NC(=O)[C@H](CC(N)=O)NC(=O)[C@@H]4CCCN4C(=O)[C@H](CCCNC(=N)N)NC(=O)[C@H](CSSC[C@H](NC(=O)[C@@H](N)CC(=O)O)C(=O)N[C@@H](CC(C)C)C(=O)NCC(=O)N[C@@H](Cc4ccccc4)C(=O)N(C)[C@@H](Cc4c[nH]c5ccccc45)C(=O)N[C@@H](CCCNC(=N)N)C(=O)N[C@@H](CCCCN)C(=O)N2)NC(=O)[C@H](CSSC[C@@H](C(=O)N[C@@H](CCCCN)C(=O)N[C@@H](Cc2ccc(O)cc2)C(=O)N[C@H](C(=O)N[C@@H](Cc2ccccc2)C(N)=O)C(C)C)NC(=O)[C@H](Cc2c[nH]c4ccccc24)NC(=O)[C@H](CCCCN)NC(=O)[C@H](Cc2c[nH]cn2)NC(=O)[C@H]([C@@H](C)O)NC(=O)[C@H](CCCNC(=N)N)NC(=O)[C@H](CO)NC3=O)NC(=O)[C@H](CCCCN)NC(=O)[C@H](CC(=O)O)NC(=O)[C@H](CC(N)=O)NC(=O)[C@H](CC(=O)O)NC(=O)[C@@H]2CCCN2C1=O [SEQ ID NO: 289] | 21400 | 140 | 240
